Measurements reported in the supplement of paper PMC9912026.
± gives the uncertainty stated by the source.

System: A375_Cra_F7_5/13
Assay: pERK immunofluorescence, normalised; higher = more ERK phosphorylation
Details: vemurafenib 0 µM, drug treatment time 24 h
Protocol: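 A375 or A375 CRISPRa-EGFR (A375_Cra_F7_5/13) cells were adapted for 24 h to a cobimetinib dose series, with or without 1 uM vemurafenib, then stimulated with EGF (100 ng/mL) or mock medium and fixed at the indicated times. pERK was measured by immunofluorescence as the population mean normalised to baseline, with the SD of technical replicates (n=2).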

## O=C(c1ccc(F)c(F)c1Nc1ccc(I)cc1F)N1CC(O)([C@@H]2CCCCN2)C1 [cobimetinib]
EGF 0 ng/mL, time after EGF/mock 0.083 h, cobimetinib 31.62 pM
  pERK immunofluorescence: 0.992 ± 0.014
EGF 0 ng/mL, time after EGF/mock 0.083 h, cobimetinib 0.0001 µM
  pERK immunofluorescence: 1.01 ± 0.017
EGF 0 ng/mL, time after EGF/mock 0.083 h, cobimetinib 0.000316228 µM
  pERK immunofluorescence: 0.951 ± 0.063
EGF 0 ng/mL, time after EGF/mock 0.083 h, cobimetinib 0.001 µM
  pERK immunofluorescence: 0.771 ± 0.014
EGF 0 ng/mL, time after EGF/mock 0.083 h, cobimetinib 0.003162278 µM
  pERK immunofluorescence: 0.467 ± 0.028
EGF 0 ng/mL, time after EGF/mock 0.083 h, cobimetinib 0.01 µM
  pERK immunofluorescence: 0.234 ± 0.0062
EGF 0 ng/mL, time after EGF/mock 0.083 h, cobimetinib 0.031622777 µM
  pERK immunofluorescence: 0.142 ± 0.0076
EGF 0 ng/mL, time after EGF/mock 0.083 h, cobimetinib 0.1 µM
  pERK immunofluorescence: 0.111 ± 0.0042
EGF 0 ng/mL, time after EGF/mock 0.083 h, cobimetinib 0.316227766 µM
  pERK immunofluorescence: 0.0968 ± 0.0013
EGF 0 ng/mL, time after EGF/mock 0.083 h, cobimetinib 1 µM
  pERK immunofluorescence: 0.0989 ± 0.002
EGF 0 ng/mL, time after EGF/mock 0.5 h, cobimetinib 31.62 pM
  pERK immunofluorescence: 0.968 ± 0.011
EGF 0 ng/mL, time after EGF/mock 0.5 h, cobimetinib 0.0001 µM
  pERK immunofluorescence: 0.9446 ± 0.0049
EGF 0 ng/mL, time after EGF/mock 0.5 h, cobimetinib 0.000316228 µM
  pERK immunofluorescence: 0.859 ± 0.029
EGF 0 ng/mL, time after EGF/mock 0.5 h, cobimetinib 0.001 µM
  pERK immunofluorescence: 0.742 ± 0.018
EGF 0 ng/mL, time after EGF/mock 0.5 h, cobimetinib 0.003162278 µM
  pERK immunofluorescence: 0.422 ± 0.036
EGF 0 ng/mL, time after EGF/mock 0.5 h, cobimetinib 0.01 µM
  pERK immunofluorescence: 0.214 ± 0.0063
EGF 0 ng/mL, time after EGF/mock 0.5 h, cobimetinib 0.031622777 µM
  pERK immunofluorescence: 0.177 ± 0.0083
EGF 0 ng/mL, time after EGF/mock 0.5 h, cobimetinib 0.1 µM
  pERK immunofluorescence: 0.143 ± 0.0028
EGF 0 ng/mL, time after EGF/mock 0.5 h, cobimetinib 0.316227766 µM
  pERK immunofluorescence: 0.0997 ± 0.00074
EGF 0 ng/mL, time after EGF/mock 0.5 h, cobimetinib 1 µM
  pERK immunofluorescence: 0.09394 ± 0.00054
EGF 0 ng/mL, time after EGF/mock 2 h, cobimetinib 31.62 pM
  pERK immunofluorescence: 1.05 ± 0.034
EGF 0 ng/mL, time after EGF/mock 2 h, cobimetinib 0.0001 µM
  pERK immunofluorescence: 1.018 ± 0.007
EGF 0 ng/mL, time after EGF/mock 2 h, cobimetinib 0.000316228 µM
  pERK immunofluorescence: 1.03 ± 0.04
EGF 0 ng/mL, time after EGF/mock 2 h, cobimetinib 0.001 µM
  pERK immunofluorescence: 0.8492 ± 0.0027
EGF 0 ng/mL, time after EGF/mock 2 h, cobimetinib 0.003162278 µM
  pERK immunofluorescence: 0.55 ± 0.059
EGF 0 ng/mL, time after EGF/mock 2 h, cobimetinib 0.01 µM
  pERK immunofluorescence: 0.217 ± 0.012
EGF 0 ng/mL, time after EGF/mock 2 h, cobimetinib 0.031622777 µM
  pERK immunofluorescence: 0.121 ± 0.0023
EGF 0 ng/mL, time after EGF/mock 2 h, cobimetinib 0.1 µM
  pERK immunofluorescence: 0.107 ± 0.0021
EGF 0 ng/mL, time after EGF/mock 2 h, cobimetinib 0.316227766 µM
  pERK immunofluorescence: 0.1 ± 0.0014
EGF 0 ng/mL, time after EGF/mock 2 h, cobimetinib 1 µM
  pERK immunofluorescence: 0.099798 ± 3.8e-05
EGF 0 ng/mL, time after EGF/mock 8 h, cobimetinib 31.62 pM
  pERK immunofluorescence: 0.974 ± 0.03
EGF 0 ng/mL, time after EGF/mock 8 h, cobimetinib 0.0001 µM
  pERK immunofluorescence: 0.999 ± 0.044
EGF 0 ng/mL, time after EGF/mock 8 h, cobimetinib 0.000316228 µM
  pERK immunofluorescence: 0.9603 ± 0.0029
EGF 0 ng/mL, time after EGF/mock 8 h, cobimetinib 0.001 µM
  pERK immunofluorescence: 0.801 ± 0.012
EGF 0 ng/mL, time after EGF/mock 8 h, cobimetinib 0.003162278 µM
  pERK immunofluorescence: 0.47 ± 0.017
EGF 0 ng/mL, time after EGF/mock 8 h, cobimetinib 0.01 µM
  pERK immunofluorescence: 0.189 ± 0.0027
EGF 0 ng/mL, time after EGF/mock 8 h, cobimetinib 0.031622777 µM
  pERK immunofluorescence: 0.102 ± 0.0035
EGF 0 ng/mL, time after EGF/mock 8 h, cobimetinib 0.1 µM
  pERK immunofluorescence: 0.086 ± 0.0032
EGF 0 ng/mL, time after EGF/mock 8 h, cobimetinib 0.316227766 µM
  pERK immunofluorescence: 0.082 ± 0.00049
EGF 0 ng/mL, time after EGF/mock 8 h, cobimetinib 1 µM
  pERK immunofluorescence: 0.082503 ± 5.1e-05
EGF 0 ng/mL, time after EGF/mock 24 h, cobimetinib 31.62 pM
  pERK immunofluorescence: 1.07 ± 0.052
EGF 0 ng/mL, time after EGF/mock 24 h, cobimetinib 0.0001 µM
  pERK immunofluorescence: 1.053 ± 0.0082
EGF 0 ng/mL, time after EGF/mock 24 h, cobimetinib 0.000316228 µM
  pERK immunofluorescence: 1.04 ± 0.028
EGF 0 ng/mL, time after EGF/mock 24 h, cobimetinib 0.001 µM
  pERK immunofluorescence: 0.927 ± 0.054
EGF 0 ng/mL, time after EGF/mock 24 h, cobimetinib 0.003162278 µM
  pERK immunofluorescence: 0.531 ± 0.03
EGF 0 ng/mL, time after EGF/mock 24 h, cobimetinib 0.01 µM
  pERK immunofluorescence: 0.189 ± 0.0082
EGF 0 ng/mL, time after EGF/mock 24 h, cobimetinib 0.031622777 µM
  pERK immunofluorescence: 0.116 ± 0.0063
EGF 0 ng/mL, time after EGF/mock 24 h, cobimetinib 0.1 µM
  pERK immunofluorescence: 0.1 ± 0.0061
EGF 0 ng/mL, time after EGF/mock 24 h, cobimetinib 0.316227766 µM
  pERK immunofluorescence: 0.08927 ± 0.00013
EGF 0 ng/mL, time after EGF/mock 24 h, cobimetinib 1 µM
  pERK immunofluorescence: 0.0841 ± 0.0033
EGF 100 ng/mL, time after EGF/mock 0.083 h, cobimetinib 31.62 pM
  pERK immunofluorescence: 1.47 ± 0.035
EGF 100 ng/mL, time after EGF/mock 0.083 h, cobimetinib 0.0001 µM
  pERK immunofluorescence: 1.44 ± 0.02
EGF 100 ng/mL, time after EGF/mock 0.083 h, cobimetinib 0.000316228 µM
  pERK immunofluorescence: 1.43 ± 0.11
EGF 100 ng/mL, time after EGF/mock 0.083 h, cobimetinib 0.001 µM
  pERK immunofluorescence: 1.42 ± 0.065
EGF 100 ng/mL, time after EGF/mock 0.083 h, cobimetinib 0.003162278 µM
  pERK immunofluorescence: 1.37 ± 0.049
EGF 100 ng/mL, time after EGF/mock 0.083 h, cobimetinib 0.01 µM
  pERK immunofluorescence: 1.27 ± 0.048
EGF 100 ng/mL, time after EGF/mock 0.083 h, cobimetinib 0.031622777 µM
  pERK immunofluorescence: 1.15 ± 0.022
EGF 100 ng/mL, time after EGF/mock 0.083 h, cobimetinib 0.1 µM
  pERK immunofluorescence: 0.883 ± 0.015
EGF 100 ng/mL, time after EGF/mock 0.083 h, cobimetinib 0.316227766 µM
  pERK immunofluorescence: 0.31 ± 0.021
EGF 100 ng/mL, time after EGF/mock 0.083 h, cobimetinib 1 µM
  pERK immunofluorescence: 0.111 ± 0.0017
EGF 100 ng/mL, time after EGF/mock 0.5 h, cobimetinib 31.62 pM
  pERK immunofluorescence: 1.35 ± 0.12
EGF 100 ng/mL, time after EGF/mock 0.5 h, cobimetinib 0.0001 µM
  pERK immunofluorescence: 1.34 ± 0.056
EGF 100 ng/mL, time after EGF/mock 0.5 h, cobimetinib 0.000316228 µM
  pERK immunofluorescence: 1.31 ± 0.016
EGF 100 ng/mL, time after EGF/mock 0.5 h, cobimetinib 0.001 µM
  pERK immunofluorescence: 1.36 ± 0.065
EGF 100 ng/mL, time after EGF/mock 0.5 h, cobimetinib 0.003162278 µM
  pERK immunofluorescence: 1.32 ± 0.032
EGF 100 ng/mL, time after EGF/mock 0.5 h, cobimetinib 0.01 µM
  pERK immunofluorescence: 1.26 ± 0.033
EGF 100 ng/mL, time after EGF/mock 0.5 h, cobimetinib 0.031622777 µM
  pERK immunofluorescence: 1.15 ± 0.022
EGF 100 ng/mL, time after EGF/mock 0.5 h, cobimetinib 0.1 µM
  pERK immunofluorescence: 1.02 ± 0.018
EGF 100 ng/mL, time after EGF/mock 0.5 h, cobimetinib 0.316227766 µM
  pERK immunofluorescence: 0.675 ± 0.012
EGF 100 ng/mL, time after EGF/mock 0.5 h, cobimetinib 1 µM
  pERK immunofluorescence: 0.179 ± 0.0051
EGF 100 ng/mL, time after EGF/mock 2 h, cobimetinib 31.62 pM
  pERK immunofluorescence: 1.21 ± 0.043
EGF 100 ng/mL, time after EGF/mock 2 h, cobimetinib 0.0001 µM
  pERK immunofluorescence: 1.194 ± 0.011
EGF 100 ng/mL, time after EGF/mock 2 h, cobimetinib 0.000316228 µM
  pERK immunofluorescence: 1.14 ± 0.018
EGF 100 ng/mL, time after EGF/mock 2 h, cobimetinib 0.001 µM
  pERK immunofluorescence: 1.08 ± 0.018
EGF 100 ng/mL, time after EGF/mock 2 h, cobimetinib 0.003162278 µM
  pERK immunofluorescence: 0.926 ± 0.018
EGF 100 ng/mL, time after EGF/mock 2 h, cobimetinib 0.01 µM
  pERK immunofluorescence: 0.7446 ± 0.0038
EGF 100 ng/mL, time after EGF/mock 2 h, cobimetinib 0.031622777 µM
  pERK immunofluorescence: 0.65813 ± 0.00038
EGF 100 ng/mL, time after EGF/mock 2 h, cobimetinib 0.1 µM
  pERK immunofluorescence: 0.527 ± 0.0089
EGF 100 ng/mL, time after EGF/mock 2 h, cobimetinib 0.316227766 µM
  pERK immunofluorescence: 0.341 ± 0.015
EGF 100 ng/mL, time after EGF/mock 2 h, cobimetinib 1 µM
  pERK immunofluorescence: 0.137 ± 0.0039
EGF 100 ng/mL, time after EGF/mock 8 h, cobimetinib 31.62 pM
  pERK immunofluorescence: 0.99 ± 0.021
EGF 100 ng/mL, time after EGF/mock 8 h, cobimetinib 0.0001 µM
  pERK immunofluorescence: 0.999 ± 0.029
EGF 100 ng/mL, time after EGF/mock 8 h, cobimetinib 0.000316228 µM
  pERK immunofluorescence: 0.997 ± 0.027
EGF 100 ng/mL, time after EGF/mock 8 h, cobimetinib 0.001 µM
  pERK immunofluorescence: 0.8777 ± 0.0035
EGF 100 ng/mL, time after EGF/mock 8 h, cobimetinib 0.003162278 µM
  pERK immunofluorescence: 0.735 ± 0.0097
EGF 100 ng/mL, time after EGF/mock 8 h, cobimetinib 0.01 µM
  pERK immunofluorescence: 0.5778 ± 0.0021
EGF 100 ng/mL, time after EGF/mock 8 h, cobimetinib 0.031622777 µM
  pERK immunofluorescence: 0.475 ± 0.018
EGF 100 ng/mL, time after EGF/mock 8 h, cobimetinib 0.1 µM
  pERK immunofluorescence: 0.3675 ± 0.003
EGF 100 ng/mL, time after EGF/mock 8 h, cobimetinib 0.316227766 µM
  pERK immunofluorescence: 0.221 ± 0.0048
EGF 100 ng/mL, time after EGF/mock 8 h, cobimetinib 1 µM
  pERK immunofluorescence: 0.1 ± 0.0011
EGF 100 ng/mL, time after EGF/mock 24 h, cobimetinib 31.62 pM
  pERK immunofluorescence: 1.07 ± 0.024
EGF 100 ng/mL, time after EGF/mock 24 h, cobimetinib 0.0001 µM
  pERK immunofluorescence: 1.08 ± 0.04
EGF 100 ng/mL, time after EGF/mock 24 h, cobimetinib 0.000316228 µM
  pERK immunofluorescence: 1.084 ± 0.0034
EGF 100 ng/mL, time after EGF/mock 24 h, cobimetinib 0.001 µM
  pERK immunofluorescence: 1.04 ± 0.043
EGF 100 ng/mL, time after EGF/mock 24 h, cobimetinib 0.003162278 µM
  pERK immunofluorescence: 0.902 ± 0.051
EGF 100 ng/mL, time after EGF/mock 24 h, cobimetinib 0.01 µM
  pERK immunofluorescence: 0.689 ± 0.025
EGF 100 ng/mL, time after EGF/mock 24 h, cobimetinib 0.031622777 µM
  pERK immunofluorescence: 0.5819 ± 0.0051
EGF 100 ng/mL, time after EGF/mock 24 h, cobimetinib 0.1 µM
  pERK immunofluorescence: 0.465 ± 0.017
EGF 100 ng/mL, time after EGF/mock 24 h, cobimetinib 0.316227766 µM
  pERK immunofluorescence: 0.273 ± 0.022
EGF 100 ng/mL, time after EGF/mock 24 h, cobimetinib 1 µM
  pERK immunofluorescence: 0.107 ± 0.0021
